Laboratory results published in the supplement of paper PMC10307832.

What was measured:
Assay in all cases: relative viability (nuclei count vs DMSO), 5 days (fraction); higher = more cells survive
Entinostat + Foretinib = compound: Nc1ccccc1NC(=O)c1ccc(CNC(=O)OCc2cccnc2)cc1 [Entinostat] + COc1cc2c(Oc3ccc(NC(=O)C4(C(=O)Nc5ccc(F)cc5)CC4)cc3F)ccnc2cc1OCCCN1CCOCC1 [Foretinib] (partner 0.25 µM)
Method in brief: (§1)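 Lung cancer cell lines were pin-tool dosed in 1536-well plates on the day after seeding, with either a lone drug or a fixed anchor-drug dose plus five library-drug doses (not always all listed) in √10 steps. Nuclei were counted on 4× images after 5 days. Relative viability is the ratio of treated-well to vehicle-well nuclei counts, with each value a median of duplicate plates.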

Entinostat + Lapatinib = compound: Nc1ccccc1NC(=O)c1ccc(CNC(=O)OCc2cccnc2)cc1 [Entinostat] + CS(=O)(=O)CCNCc1ccc(-c2ccc3ncnc(Nc4ccc(OCc5cccc(F)c5)c(Cl)c4)c3c2)o1 [Lapatinib] (partner 2 µM)
Method in brief: as §1

Entinostat + Crizotinib = compound: Nc1ccccc1NC(=O)c1ccc(CNC(=O)OCc2cccnc2)cc1 [Entinostat] + C[C@@H](Oc1cc(-c2cnn(C3CCNCC3)c2)cnc1N)c1c(Cl)ccc(F)c1Cl [Crizotinib] (partner 1 µM)
Method in brief: as §1

SGI-1776 + Bortezomib = compound: CN1CCC(CNc2ccc3ncc(-c4cccc(OC(F)(F)F)c4)n3n2)CC1 [SGI-1776] + CC(C)C[C@H](NC(=O)[C@H](Cc1ccccc1)NC(=O)c1cnccn1)B(O)O [Bortezomib] (partner 0.002 µM)
Method in brief: as §1

Cell Line	relative viability (Entinostat + Foretinib; first compound 0.02 µM)	relative viability (Entinostat + Foretinib; first compound 0.06325 µM)	relative viability (Entinostat + Foretinib; first compound 0.2 µM)	relative viability (Entinostat + Foretinib; first compound 0.6325 µM)	relative viability (Entinostat + Foretinib; first compound 2 µM)	relative viability (Entinostat + Lapatinib; first compound 0.02 µM)	relative viability (Entinostat + Lapatinib; first compound 0.06325 µM)	relative viability (Entinostat + Lapatinib; first compound 0.2 µM)	relative viability (Entinostat + Lapatinib; first compound 0.6325 µM)	relative viability (Entinostat + Lapatinib; first compound 2 µM)	relative viability (Entinostat + Crizotinib; first compound 0.02 µM)	relative viability (Entinostat + Crizotinib; first compound 0.06325 µM)	relative viability (Entinostat + Crizotinib; first compound 0.2 µM)	relative viability (Entinostat + Crizotinib; first compound 0.6325 µM)	relative viability (Entinostat + Crizotinib; first compound 2 µM)	relative viability (SGI-1776 + Bortezomib; first compound 0.08 µM)	relative viability (SGI-1776 + Bortezomib; first compound 0.8 µM)	relative viability (SGI-1776 + Bortezomib; first compound 2.53 µM)	relative viability (SGI-1776 + Bortezomib; first compound 8 µM)
NCI-H322M	0.978	1.16	1.15	0.993	0.854	0.643	0.612	0.623	0.647	0.621	1.03	0.961	0.98	0.809	0.651	1.3	1.26	1.21	1.07
NCI-H2405	1.06	1.11	0.979	0.902	0.614	1.16	1.42	1.08	1.04	0.625	0.85	0.887	0.906	0.805	0.598	1.04	0.997	0.896	0.924
HCC-44	–	–	–	–	–	1	0.88	0.7	0.258	0.311	0.773	0.614	0.453	0.339	0.22	0.942	0.908	0.98	0.895
HCC-78	0.559	0.479	0.39	0.297	0.264	0.829	0.702	0.33	0.169	0.169	0.37	0.293	0.234	0.163	0.141	0.48	0.516	0.516	0.45
COR-L23	0.919	0.857	0.943	0.495	0.308	0.967	0.995	0.905	0.579	0.176	0.508	0.524	0.513	0.205	0.0924	1.13	0.937	0.971	0.846
NCI-H2009	1.15	1.19	1.19	0.942	0.894	0.954	0.984	0.827	0.685	0.396	0.984	1.06	0.965	0.877	0.556	1.03	1.02	0.991	0.733
NCI-H3122	0.992	0.995	0.999	0.973	0.776	1.02	1.07	1.09	0.917	0.893	0.28	0.265	0.319	0.313	0.334	1.06	1.01	1.08	1.01
NCI-H2228	0.994	0.787	0.914	0.526	0.288	1.12	1.02	1.08	0.457	0.315	0.479	0.429	0.337	0.378	0.221	1.05	0.917	0.992	0.531
NCI-H1944	1	0.711	0.472	0.364	0.218	0.851	0.768	0.787	0.354	0.271	0.971	0.756	0.629	0.344	0.249	–	–	–	–
NCI-H2342	1.04	1.22	0.947	0.924	0.787	–	–	–	–	–	–	–	–	–	–	–	–	–	–
NCI-H358	0.755	0.81	0.66	0.41	0.124	0.467	0.438	0.521	0.367	0.287	0.545	0.519	0.463	0.209	0.0928	–	–	–	–
NCI-H1755	0.901	0.864	0.805	0.713	0.421	1.02	1.02	0.95	0.532	0.264	0.832	0.827	0.771	0.462	0.347	0.932	0.953	0.971	0.774
A-427	1.2	1.16	1.06	1	0.811	1.16	1.08	1.07	0.983	0.83	0.808	1.06	0.864	0.665	0.545	1.04	1.03	0.931	0.749
LCLC-103H	0.802	0.66	0.612	0.666	0.384	–	–	–	–	–	0.968	1.03	0.992	0.801	0.631	1.06	1.05	1.01	0.859
NCI-H1792	–	–	–	–	–	0.953	0.96	0.836	0.767	0.513	0.979	1.04	0.86	0.796	0.569	0.94	0.941	0.977	1.01
NCI-H1793	0.678	0.753	0.782	0.472	0.326	0.695	1.07	0.617	0.393	0.328	–	–	–	–	–	–	–	–	–
SW 900	0.946	0.878	1.04	0.674	0.533	–	–	–	–	–	–	–	–	–	–	–	–	–	–
SK-MES-1	1.08	1.09	1.15	0.96	0.712	0.511	0.525	0.494	0.488	0.395	0.984	1.03	1.09	0.955	0.67	–	–	–	–
LK-2	1.02	1.31	0.905	0.683	0.543	0.98	1.05	1.01	0.476	0.459	0.252	0.234	0.227	0.255	0.248	–	–	–	–
NCI-H441	1.08	1.05	0.805	0.377	0.298	–	–	–	–	–	0.715	0.744	0.523	0.215	0.181	0.376	0.443	0.529	0.332
NCI-H1395	1	1.03	0.994	0.846	0.68	1.1	1.21	0.901	0.566	0.569	–	–	–	–	–	–	–	–	–
